Laboratory results taken from patent US7223865B2, “Chromogenic compounds, and use thereof as enzyme substrates” (Biomerieux, priority 2003, dated 2007).

Key:
Assay in all cases: L-alanine-aminopeptidase activity on gelled medium, Example 4
Format in all cases: cell-based
[1] = test system: Escherichia coli (032); settings: 0.3 g/l, after the addition of HCl
Description: (§1) A gelled medium comprising L-Ala-2-MeOAPA or L-Ala-2,5-diMeOAPA is prepared as follows: 46.37 g of Columbia agar are added to 1 liter of distilled water and then autoclaved. This reaction medium is separated into two media of equivalent volume. Each of these media comprises, respectively: 0.3 g/l of L-Ala-2-MeOAPA, introduced by means of a stock solution in DMSO, and 0.3 g/l of L-Ala-2,5-diMeOAPA, also introduced by means of a stock solution in DMSO. Microorganisms derived from the applicant's collection were seeded onto each of the media, by delimitation as three dials, using a suspension at 0.5 McFarland. The dishes were incubated at 37° C. for 24 hours. The color of these colonies and also the intensity of this color were noted after the addition of HCl.

[2] = test system: Citrobacter koseri (012); settings: 0.3 g/l, after the addition of HCl
Description: as §1

[3] = test system: Listeria innocua (036); settings: 0.3 g/l, after the addition of HCl
Description: as §1, with “The dishes were incubated at 37° C. for 24 hours.” left out

[4] = test system: Enterobacter cloacae (061); settings: 0.3 g/l, after the addition of HCl
Description: as §1, with “The dishes were incubated at 37° C. for 24 hours.” left out

[5] = test system: Streptococcus agalactiae (001); settings: 0.3 g/l, after the addition of HCl
Description: as §1, with “The dishes were incubated at 37° C. for 24 hours.” left out

[6] = test system: Proteus mirabilis (037); settings: 0.3 g/l, after the addition of HCl
Description: as §1, with “The dishes were incubated at 37° C. for 24 hours.” left out

[7] = test system: Klebsiella pneumoniae (023); settings: 0.3 g/l, after the addition of HCl
Description: as §1, with “The dishes were incubated at 37° C. for 24 hours.” left out

[8] = test system: Staphylococcus aureus (035); settings: 0.3 g/l, after the addition of HCl
Description: as §1, with “The dishes were incubated at 37° C. for 24 hours.” left out

[9] = test system: Candida albicans (077); settings: 0.3 g/l, after the addition of HCl
Description: as §1, with “The dishes were incubated at 37° C. for 24 hours.” left out

[10] = test system: Enterococcus faecalis (117); settings: for Color / Intensity: 0.3 g/l, after the addition of HCl
Description: as §1, with “The dishes were incubated at 37° C. for 24 hours.” left out

SMILES: COc1cc(-c2c3ccccc3nc3ccccc23)ccc1NC(=O)[C@H](C)N [L-Ala-2-MeOAPA, L-alanyl-2-methoxy-aminophenylacridine]
- Color ([1]; 24 H): orange
- Intensity ([1]; 24 H): 0.5
- Color ([1]; 48 h): pink
- Intensity ([1]; 48 h): 3.5
- Color ([2]; 24 H): orange
- Intensity ([2]; 24 H): 2
- Color ([2]; 48 h): pink
- Intensity ([2]; 48 h): 3.5
- Color ([3]; 24 H): colorless*
- Intensity ([3]; 24 H): 0
- Color ([3]; 48 h): colorless*
- Intensity ([3]; 48 h): 0
- Color ([4]; 24 H): pink
- Intensity ([4]; 24 H): 2
- Color ([4]; 48 h): pink
- Intensity ([4]; 48 h): 2
- Color ([5]; 24 H): inhibited
- Color ([5]; 48 h): inhibited
- Color ([6]; 24 H): orange
- Intensity ([6]; 24 H): 1
- Color ([6]; 48 h): orange
- Intensity ([6]; 48 h): 1.5
- Color ([7]; 24 H): pink
- Intensity ([7]; 24 H): 3
- Color ([7]; 48 h): pink
- Intensity ([7]; 48 h): 3.5
- Color ([8]; 24 H): colorless*
- Intensity ([8]; 24 H): 0
- Color ([8]; 48 h): colorless*
- Intensity ([8]; 48 h): 0
- Color ([9]; 24 H): inhibited
- Color ([9]; 48 h): inhibited
- Color ([10]; 24 H): inhibited
- Color ([10]; 48 h): inhibited

SMILES: COc1cc(-c2c3ccccc3nc3ccccc23)c(OC)cc1NC(=O)[C@H](C)N [L-Ala-2,5-diMeOAPA, L-alanyl-2,5-dimethoxyaminophenylacridine]
- Color ([1]; 24 H): Yellow-orange
- Intensity ([1]; 24 H): 1.5
- Color ([1]; 48 h): Yellow-orange
- Intensity ([1]; 48 h): 2
- Color ([2]; 24 H): orange
- Intensity ([2]; 24 H): 1
- Color ([2]; 48 h): Yellow-orange
- Intensity ([2]; 48 h): 2.5
- Color ([3]; 24 H): colorless
- Intensity ([3]; 24 H): 0
- Color ([3]; 48 h): colorless
- Intensity ([3]; 48 h): 0
- Color ([4]; 24 H): Yellow-orange
- Intensity ([4]; 24 H): 1.5
- Color ([4]; 48 h): Yellow-orange
- Intensity ([4]; 48 h): 2
- Color ([5]; 24 H): colorless
- Intensity ([5]; 24 H): 0
- Color ([5]; 48 h): colorless
- Intensity ([5]; 48 h): 0
- Color ([6]; 24 H): colorless
- Intensity ([6]; 24 H): 0
- Color ([6]; 48 h): orange
- Intensity ([6]; 48 h): 0.5
- Color ([7]; 24 H): orange
- Intensity ([7]; 24 H): 1
- Color ([7]; 48 h): Yellow-orange
- Intensity ([7]; 48 h): 2.5
- Color ([8]; 24 H): colorless
- Intensity ([8]; 24 H): 0
- Color ([8]; 48 h): colorless
- Intensity ([8]; 48 h): 0
- Color ([9]; 24 H): colorless
- Intensity ([9]; 24 H): 0
- Color ([9]; 48 h): colorless
- Intensity ([9]; 48 h): 0
- Color ([10]; 24 H): Yellow-orange
- Intensity ([10]; 24 H): 0.5
- Color ([10]; 48 h): Yellow-orange
- Intensity ([10]; 48 h): 3
- L-alanine-aminopeptidase activity ([10]; after incubation for 48 hours): exhibits an activity
